{"source": "patent US11938122B2", "about": "“5-[[4-[2-[5-(1-hydroxyethyl)pyridin-2-yl]ethoxy]phenyl]methyl]-1,3- thiazolidine-2,4-dione for treating nonalcoholic fatty liver disease” (Minoryx Therapeutics S.L., priority 2016, dated 2024)", "tested_on": "CYP2B6", "assay": "CYP induction in cryopreserved human hepatocytes", "assay_type": "in vitro ADME", "conditions": "50 μM, hepatocytes from 3 human donors", "data": [{"compound": "CC(O)c1ccc(CCOc2ccc(CC3SC(=O)NC3=O)cc2)nc1", "note": "(racemic) [MIN-102, 5-[[4-[2-[5-(1-hydroxyethyl)pyridin-2-yl]ethoxy]phenyl]methyl]-1,3-thiazolidine-2,4-dione]", "values": [{"measurement": "increase in activity of CYP2B6 probe reaction", "value": "less than 20 % of the respective positive control induction"}]}]}
